Results published in US20150005347A1, “NITROGEN-CONTAINING HETEROCYCLIC DERIVATIVE HAVING 2-IMINO GROUP AND PEST CONTROL AGENT INCLUDING THE SAME” (MEIJI SEIKA PHARMA CO., LTD., priority 2012, published 2015).
Where two headings read alike, the source gives them in different places.

Assays:
Assay type in all cases: in vivo
Aphis gossypii = assay: Pest control test of Aphis gossypii, cucumber leaf disk foliar spray; conditions: Aphis gossypii, foliar
Method in brief: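 Cucumber leaf disks (2.0 cm) sprayed with compound at a set concentration in 50% acetone water with 0.05% Tween20, air-dried, then infested with first instar larvae; held at 25 °C, 16 h light/8 h dark. Larval mortality (%) = dead/(survived + dead) × 100; duplicate.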

Callosobruchus chinensis = assay: Pest control test against Callosobruchus chinensis, topical treatment of adults
Description: Test Example 5 Pest control test against Callosobruchus chinensis
1 μL (/head) of a drug solution of the compound of the present invention prepared at a predetermined concentration with acetone was treated to the back of Callosobruchus chinensis adults. After the drug treatment, the adults were transferred to a plastic cup and left to stand in a thermostatic chamber at 25° C.
Rate of agonized adults(%)={number of dead adults/(number of survived adults+number of dead adults)}×100

[1] = test system: Nilaparvata lugens exhibiting drug resistance to imidacloprid; assay: Foliar spray test, Nilaparvata lugens exhibiting drug resistance to imidacloprid; conditions: 144 h, read-out: mortality of larvae
Description: Test Example 16 Pest Control Test of Nilaparvata lugens
A drug solution of the compound of the present invention at a predetermined concentration, which had been prepared so as to be a 50% acetone water (0.05% Tween20 available), was foliar sprayed to a rice seedling in pot culture. […] Thereafter, the larvae were left to stand in a thermostatic chamber (16 hours of light period-8 hours of dark period) at 25° C. […] Test in duplicate.
(§1) Mortality of larvae(%)={number of dead larvae/(number of survived larvae+number of dead larvae)}×100
Further, for the origin of test pests, insects of Nilaparvata lugens collected outdoors within the Fukuoka prefecture in 2005 were used.

housefly instar larvae = assay: Pest control test of housefly instar larvae, treated bait; conditions: Musca domestica, read-out: mortality of larvae, chrysalises and adults
Description: Test Example 22 Pest Control Test of Housefly Instar Larvae
Compound 1-20 was blended with an extremely small amount of DMSO, and then the resulting mixture was dissolved in deionized water to adjust the drug solution. 10 ml of the drug solution adjusted to be 30 ppm was added to 10 g of powder in which wheat bran, MF feed (Oriental Yeast Co., Ltd.) and dry yeast had been mixed in a ratio of 25:5:1, and the mixture was mixed well to prepare a bait for housefly instar larvae. A 50 ml Falcon tube was slightly filled with the bait including the compound, and 20 eggs were released thereto. The mouth of the Falcon tube was covered with a mesh-topped lid, and the tube was allowed to stand at 25° C. Twenty days after the drug treatment, the numbers of instar larvae, chrysalises and adults were measured, and the mortality of larvae, chrysalises and adults was calculated by the following equation. The test was performed by repeating each treatment twice.
Mortality of larvae,chrysalises and adults(%)={number of dead larvae,chrysalises and adults/(number of survived larvae,chrysalises and adults+number of dead larvae,chrysalises and adults)}×100

Coptotermes formosanus = assay: Pest control test of Coptotermes formosanus, treated filter paper; conditions: 168 h, read-out: mortality of insects
Description: Test Example 27 Pest Control Test of Coptotermes formosanus
A filter paper was allowed to be soaked in a drug solution of the compound of the present invention at a predetermined concentration, which had been prepared with acetone. The filter paper was sufficiently blow-dried and then put into a plastic petri dish, and 5 insects of Coptotermes formosanus (worker ant) were each released thereto. Thereafter, the insects were left to stand in a thermostatic chamber (16 hours of light period-8 hours of dark period) at 25° C. […] The test was performed in duplicate.
Mortality of insects(%)={number of dead insects/(number of survived insects+number of dead insects)}×100

Aulacophora femoralis = assay: Pest control test of Aulacophora femoralis, cucumber leaf disk foliar spray
Description: Test Example 4 Pest Control Test of Aulacophora femoralis
A leaf disk having a diameter of 2.8 cm was cut out from a cucumber in pot culture, and a drug solution of the compound of the present invention at a predetermined concentration, which had been prepared so as to be a 50% acetone water (0.05% Tween20 available), was sprayed to the leaf disk. After an air drying process, adults were released thereto. Thereafter, the adults were left to stand in a thermostatic chamber (16 hours of light period-8 hours of dark period) at 25° C. […] Test in duplicate.
Mortality of adults(%)={number of dead adults/(number of survived adults+number of dead adults)}×100

Oulema oryzae = assay: Pest control test of Oulema oryzae, soil irrigation treatment; conditions: 0.05 mg/seedling, three days after release
Description: Test Example 13 Pest Control Test of Oulema oryzae
(§2) A rice seedling in pot culture was subjected to soil irrigation treatment with a drug solution of the compound of the present invention at a predetermined concentration, which had been prepared so as to be a 10% acetone water. Three days after the treatment, two second instar larvae of Oulema oryzae were each released thereto. Thereafter, the larvae were left to stand in a thermostatic chamber (16 hours of light period-8 hours of dark period) at 25° C. […] The test was performed in duplicate.
as §1

Nephotettix cincticeps = assay: Pest control test of Nephotettix cincticeps, soil irrigation treatment; conditions: for % Mortality, Test Example 14 Nephotettix cincticeps: soil irrigation treatment
Description: Test Example 14 Pest Control Test of Nephotettix cincticeps
as §2, with “five” for “two”, “Nephotettix cincticeps” for “Oulema oryzae”
as §1

Sogatella furcifera = assay: Pest control test of Sogatella furcifera, soil irrigation treatment
Description: Test Example 11 Pest Control Test of Sogatella furcifera
as §2, with “ten” for “two”, “Sogatella furcifera” for “Oulema oryzae”
as §1

[2] = 72 h, read-out: mortality of larvae
[3] = read-out: % Mortality, Test Example3 Aphis gossypii
[4] = read-out: % Mortality, Test Example4 Aulacophora femoralis

`FC(F)(F)C(=S)/N=c1\ccccn1Cc1ccc(Cl)nc1` [Compound 1-20, N-[1-((6-chloropyridin-3-yl)methyl)pyridin-2(1H)-ylidene]-2,2,2-trifluoroethanethioamide] was tested, and the mortality at 20 ppm (Aphis gossypii; [2]) was ≥ 80%, the mortality at 100 ppm (Aphis gossypii; [2]) was ≥ 80% and the mortality at 1.25 ppm (Aphis gossypii; [3]) was 75%. For the same compound, the mortality at 5 ppm (Aphis gossypii; [3]) was 100%, the mortality at 20 ppm (Aphis gossypii; [3]) was 100% and the mortality at 100 ppm (Aphis gossypii; [3]) was 100%. For the same compound, the mortality of adults (Callosobruchus chinensis; 0.1 μg/head on the back of adults, twenty four hours after treatment) was ≥ 80%, the “% Mortality, Test Example5 Callosobruchus chinensis” value (Callosobruchus chinensis; Concentration 10 (ppm)) was 100% and the “% Mortality, Test Example5 Callosobruchus chinensis” value (Callosobruchus chinensis; Concentration 100 (ppm)) was 100%. For the same compound, the mortality at 20 ppm [1] was ≥ 80%, the mortality at 30 ppm (housefly instar larvae) was 100% and the mortality at 0.5 µg/cm2 (Coptotermes formosanus) was 100%. For the same compound, the mortality at 10 ppm (Aulacophora femoralis; 72 h, read-out: mortality of adults) was ≥ 80%, the mortality at 1.25 ppm (Aulacophora femoralis; [4]) was 100% and the mortality at 5 ppm (Aulacophora femoralis; [4]) was 100%. The mortality of larvae (Oulema oryzae) was ≥ 80%, the “% Mortality, Test Example 14 Nephotettix cincticeps” value (Nephotettix cincticeps; 0.0001 mg/pot) was 67% and the “% Mortality, Test Example 14 Nephotettix cincticeps” value (Nephotettix cincticeps; 0.001 mg/pot) was 67%. For the same compound, the “% Mortality, Test Example 14 Nephotettix cincticeps” value (Nephotettix cincticeps; 0.01 mg/pot) was 100%, the mortality of larvae (Nephotettix cincticeps; soil irrigation, 0.05 mg/seedling, three days after release) was ≥ 80% and the “% Mortality, Test Example 11 Sogatella furcifera” value (Sogatella furcifera; 0.005 mg/pot) was 53%. For the same compound, the “% Mortality, Test Example 11 Sogatella furcifera” value (Sogatella furcifera; 0.01 mg/pot) was 88%.
